For seven compounds, EC50 and IC50 results are on record in patent US8053435B2, “Naphthalenyloxypropenyl derivatives having inhibitory activity against histone deacetylase and pharmaceutical composition comprising the same” (Korea Research Institute of Chemical Technology, priority 2006, dated 2011).

Like-named read-outs stand apart in the source and are kept apart here.

For test [1], the system named is colon cancer cells HCT116. Briefly: Inhibitory activity against proliferation of cancer cells, SRB (Sulforhodamine B) analysis. The class given is cell-based. Conditions: Homo sapiens, read-out: Inhibitory conc. against cancer cell growth (EC50 μM) HCT116.
The next test concerns HDAC. Briefly: Inhibitory activity against HDAC (BIOMOL Quantizyme Assay system, Fluor de Lys substrate). The test is classed as biochemical. To be noted: HeLa nuclear extract as source of HDAC enzymes, enzyme reaction 1 hr. In short, it runs like this:
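HeLa nuclear extract served as HDAC source (100 nM final) with Fluor de Lys substrate, reacted 1 h. Development used Fluor de Lys developer containing 2 µM trichostatin A for 15 min at room temperature, read at ex 355/em 460 nm.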

The mark [2] stands for this setting: HCT-116, Table 8, 48 hrs incubation with compound.
Where [3] appears, read: Table 7, formula (4) series, read-out: HDAC Inhibitory conc. (IC50, μM/ml).
[4] abbreviates: HCT-116, Table 6, 48 hrs incubation with compound.
[5] abbreviates: Table 5, formula (3) series, read-out: Inhibitory conc. (IC50, μM/ml).
Where [6] appears, read: HCT-116, Table 4, 48 hrs incubation with compound.
The mark [7] stands for this setting: Table 3, formula (2) series, read-out: IC50 (HDAC inhibitory concentration).

For orientation: EC50 means the concentration at which the effect is half-maximal.

With `O=C(NO)c1ccc(/C=C(/CNC2CCN(C3CCCC3)CC2)COc2cccc3ccccc23)cc1` [Example 4-7, (Z)-4-(3-(1-cyclopentylpiperidin-4-ylamino)-2-((naphthalen-1-yloxy)methyl)prop-1-enyl)-N-hydroxybenzamide], in test [1] (setting [2]), the EC50 was 10 µM. In the test with HDAC (setting [3]), the IC50 was found to be 0.016 µM.
`COCCNC/C(=C/CCCCC(=O)NO)COc1cccc2ccccc12` [Example 3-10, (Z)—N-Hydroxy-8-(2-methoxyethylamino)-7-((naphthalen-1-yloxy)methyl)oct-6-enamide]: in test [1] (setting [4]), the EC50 was less than 0.2 µM. The IC50 in the test on HDAC (setting [5]) was found to be 0.006 µM.
For `O=C(CCCCC=C(COc1cccc2ccccc12)C(=O)NCC1CCCO1)NO` (centres unmarked) [Example 2-8, (E)-N8-Hydroxy-2-((naphthalen-1-yloxy)methyl)-N1-(tetrahydrofuran-2-yl)methyl)-2-octenediamide], the 50% effective concentration (EC50) in test [1] (setting [6]) was found to be 0.7 µM. For the same compound, the IC50 with HDAC (setting [7]) was 0.014 µM.
Regarding `O=C(NCc1ccco1)/C(=C/c1ccc(C(=O)NO)cc1)COc1cccc2ccccc12` [Example 1-12, (E)-4-(3-(Furan-2-ylmethylamino)-2-((naphthalen-1-yloxy)methyl)-3-oxoprop-1-enyl)-N-hydroxybenzamide], in test [1] (HCT-116, Table 2, 48 hrs incubation with compound), the EC50 came out at 0.6 µM. For the same compound, the IC50 in the test on HDAC (Table 1, formula (1) series, read-out: IC50 (HDAC inhibitory concentration)) worked out at 0.007 µM.
Regarding `CC(C)N(CCNC/C(=C/c1ccc(C(=O)NO)cc1)COc1cccc2ccccc12)C(C)C` [Example 4-19, (Z)-4-(3-(2-(diisopropylamino)ethylamino)-2-((naphthalen-1-yloxy)methyl)prop-1-enyl)-N-hydroxybenzamide], the EC50 in test [1] (setting [2]) turned out to be 0.8 µM. The IC50 in the test with HDAC (setting [3]) amounted to 0.016 µM.
Regarding `O=C(CCCC/C=C(\COc1cccc2ccccc12)C(=O)NCc1cccs1)NO` [Example 2-15, (E)-N8-Hydroxy-2-((naphthalen-1-yloxy)methyl)-N1-(thiophen-2-ylmethyl)-2-octenediamide], the EC50 in test [1] (setting [6]) turned out to be 0.4 µM. In addition, the IC50 with HDAC (setting [7]) is 0.008 µM.
As for `COCC(C)NC/C(=C/CCCCC(=O)NO)COc1cccc2ccccc12` (centres unmarked) [Example 3-2, (Z)—N-Hydroxy-8-(1-methoxypropan-2-ylamino)-7-((naphthalen-1-yloxy)methyl)oct-6-enamide], the 50% effective concentration (EC50) in test [1] (setting [4]) turned out to be 0.2 µM. For the same compound, the IC50 in the test with HDAC (setting [5]) was 0.005 µM.
